The target of the assay is T1, full-length human PKCι (Homo sapiens, UniProt P41743).
T1 construct: Recombinant, full-length human PKCι expressed in Sf21 insect cells is also commercially available; purchased; host or cells: Sf21 insect cells
T1 sequence (P41743 1-596): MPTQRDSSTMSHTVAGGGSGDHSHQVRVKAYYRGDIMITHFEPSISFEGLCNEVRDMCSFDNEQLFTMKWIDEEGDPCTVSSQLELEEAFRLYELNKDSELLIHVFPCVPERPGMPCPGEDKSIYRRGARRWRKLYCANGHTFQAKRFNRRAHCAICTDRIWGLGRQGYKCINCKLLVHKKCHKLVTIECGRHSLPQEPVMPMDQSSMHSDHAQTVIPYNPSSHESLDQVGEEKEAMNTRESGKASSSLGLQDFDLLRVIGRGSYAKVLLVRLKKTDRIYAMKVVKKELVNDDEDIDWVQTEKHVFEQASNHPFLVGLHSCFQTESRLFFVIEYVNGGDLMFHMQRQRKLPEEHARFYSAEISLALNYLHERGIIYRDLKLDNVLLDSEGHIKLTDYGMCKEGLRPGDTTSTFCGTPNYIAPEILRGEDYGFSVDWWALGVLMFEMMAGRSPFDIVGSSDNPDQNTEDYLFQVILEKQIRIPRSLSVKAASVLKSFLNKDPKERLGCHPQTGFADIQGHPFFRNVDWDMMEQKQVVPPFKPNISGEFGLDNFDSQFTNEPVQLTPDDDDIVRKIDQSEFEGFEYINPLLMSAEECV
The experiment in a line: PKCι IC50 IMAP assay, full-length PKCι at 150 μM ATP. As to conditions: read-out: IC50 in IMAP assay against full length PKCi at 150 μM ATP. It is filed as biochemical. Put shortly:
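Compounds in 4% final DMSO are mixed with Sf21-derived full-length human PKCι (typically 15 pM) and 100 nM FAM-labelled pseudosubstrate peptide, then started with 150 μM ATP. Reaction runs 60 min at room temperature, is quenched with IMAP development reagent for 2 h, and fluorescence polarisation is measured to derive IC50.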

`FC(F)(F)CN1CCC(Nc2cc(-c3nc(N4CCNCC4)c4c(C5CC5)cncc4n3)ccn2)CC1` [Example 814, [4-(5-Cyclopropyl-4-piperazin-1-yl-pyrido[3,4-d]pyrimidin-2-yl)-pyridin-2-yl]-[1-(2,2,2-trifluoro-ethyl)-piperidin-4-yl]-amine]: the IC50 is under 100 nM. Under `CN(c1nc(-c2ccnc(Nc3ncc(F)cc3F)c2)nc2cncc(C3CCC3)c12)C1CCNCC1` [Example 2157, {5-Cyclobutyl-2-[2-(3,5-difluoro-pyridin-2-ylamino)-pyridin-4-yl]-pyrido[3,4-d]pyrimidin-4-yl}-methyl-piperidin-4-yl-amine] stands under 100 nM; under `c1csc(-c2cc3c(-c4nc(N5CCNCC5)c5c(C6CC6)cncc5n4)ccnc3[nH]2)c1` [Example 1222, 5-Cyclopropyl-4-piperazin-1-yl-2-(2-thiophen-2-yl-1H-pyrrolo[2,3-b]pyridin-4-yl)-pyrido[3,4-d]pyrimidine], under 100 nM; under `CC(C)(C)c1cc2c(-c3nc(N4CCNCC4)c4c(C5CC5)cncc4n3)c(Cl)cnc2[nH]1` [Example 1229, 2-(2-tert-Butyl-5-chloro-1H-pyrrolo[2,3-b]pyridin-4-yl)-5-cyclopropyl-4-piperazin-1-yl-pyrido[3,4-d]pyrimidine], under 100 nM. In the case of `Fc1cccc(F)c1Nc1cc(-c2nc(N[C@H]3CCNC3)c3c(C4CC4)cncc3n2)ccn1` [Example 2034, {5-Cyclopropyl-2-[2-(2,6-difluoro-phenylamino)-pyridin-4-yl]-pyrido[3,4-d]pyrimidin-4-yl}-(S)-pyrrolidin-3-yl-amine], the IC50 is under 100 nM. Under `CC(Nc1cc(-c2nc(N3CCNCC3)c3c(C4CC4)cncc3n2)ccn1)c1cnn(C)c1` (centres unmarked) [Example 730, [4-(5-Cyclopropyl-4-piperazin-1-yl-pyrido[3,4-d]pyrimidin-2-yl)-pyridin-2-yl]-[1-(1-methyl-1H-pyrazol-4-yl)-ethyl]-amine] stands under 100 nM; under `COc1cncc2nc(-c3ccncc3)nc(N[C@@H]3CCNC3)c12` [Example 2, (5-Methoxy-2-pyridin-4-yl-pyrido[3,4-d]pyrimidin-4-yl)-(R)-pyrrolidin-3-yl-amine], 100 to 1000 nM; under `N#CC[C@H]1CN(c2nc(-c3ccnc(Nc4ccccc4)c3)nc3cncc(C4CC4)c23)CCN1` [Example 280, {(S)-4-[5-Cyclopropyl-2-(2-phenylamino-pyridin-4-yl)-pyrido[3,4-d]pyrimidin-4-yl]-piperazin-2-yl}-acetonitrile], under 100 nM. The figure for `FC1CCC(Nc2cc(-c3nc(N4CCNCC4)c4c(C5CC5)cncc4n3)ccn2)CC1` (centres unmarked) [Example 601, [4-(5-Cyclopropyl-4-piperazin-1-yl-pyrido[3,4-d]pyrimidin-2-yl)-pyridin-2-yl]-(4-fluorocyclohexyl)-amine] is under 100 nM. As to `FC(F)(F)C1CN(c2nc(-c3ccncc3)nc3cnccc23)CCN1` (centres unmarked) [Example 59, 1-[2-(pyridin-4-yl)-pyrido[3,4-d]-pyrimidin-4-yl]-3-(trifluoromethyl)-piperazine], the IC50 fell in the range of 10000 to 40000 nM. The figure for `COc1cncc2nc(-c3ccnc(Nc4cccc(C)n4)c3)nc(N3CCNCC3)c12` [Example 415, [4-(5-Methoxy-4-piperazin-1-yl-pyrido[3,4-d]pyrimidin-2-yl)-pyridin-2-yl]-(6-methyl-pyridin-2-yl)-amine] is under 100 nM; for `CS(=O)(=O)C[C@H]1CN(c2nc(-c3ccnc(NC(=O)C4CC4)c3)nc3cncc(C4CC4)c23)CCN1` [Example 773, Cyclopropanecar-boxylic acid {4-[5-cyclopropyl-4-((R)-3-methanesulfonyl-methyl-piperazin-1-yl)-pyrido[3,4-d]pyrimidin-2-yl]-pyridin-2-yl}-amide] it is 100 to 1000 nM. Consider `COc1cncc2nc(-c3ccnc(NC(=O)Cc4cccc(C#N)c4)c3)nc(N3CCN(C)CC3)c12` [Example 404, 2-(3-Cyano-phenyl)-N-{4-[5-methoxy-4-(4-methyl-piperazin-1-yl)-pyrido[3,4-d]pyrimidin-2-yl]-pyridin-2-yl}-acetamide], for which the concentration for half-maximal inhibition (IC50) fell in the range of 100 to 1000 nM. The figure for `Fc1cccc(F)c1Nc1cc(-c2nc(N3CCNCC3)c3c(C(F)(F)F)cncc3n2)ccn1` [Example 2193, (2,6-Difluoro-phenyl)-[4-(4-piperazin-1-yl-5-trifluoromethyl-pyrido[3,4-d]pyrimidin-2-yl)-pyridin-2-yl]-amine] is under 100 nM; for `c1cc(-c2nc(N3CCNCC3)c3c(C4CC4)cncc3n2)cc(N[C@@H]2CCOC2)n1` [Example 509, [4-(5-Cyclopropyl-4-piperazin-1-yl-pyrido[3,4-d]pyrimidin-2-yl)-pyridin-2-yl]-(R)-tetrahydro-furan-3-yl-amine] it is under 100 nM; for `O=C(O)c1ccc(Nc2cc(-c3nc(N4CCNCC4)c4c(C5CC5)cncc4n3)ccn2)cc1` [Example 684, 4-[4-(5-Cyclopropyl-4-piperazin-1-yl-pyrido[3,4-d]pyrimidin-2-yl)-pyridin-2-ylamino]-benzoic acid] it is 100 to 1000 nM.

For the molecule `COc1cncc2nc(-c3ccnc(Nc4ccccc4)c3)nc(N3CCC(O)C(CO)C3)c12` (centres unmarked) [Example 443, 3-Hydroxymethyl-1-[5-methoxy-2-(2-phenylamino-pyridin-4-yl)-pyrido[3,4-d]pyrimidin-4-yl]-piperidin-4-ol], the IC50 was in the range of 1000 to 10000 nM. As for `N[C@H](CNc1nc(-c2ccncc2F)nc2cnccc12)Cc1ccccc1` [Example 10, N-[(2S)-2-amino-3-phenylpropyl]-2-(3-fluoropyridin-4-yl)pyrido[3,4-d]-pyrimidin-4-amine], the IC50 was 100 to 1000 nM.

Take `c1cc(-c2nc(N3CCNCC3)c3c(C4CC4)cncc3n2)cc(N[C@H]2C[C@@H]3CC[C@H]2C3)n1` [Example 823, (1S,2S,4R)-Bicyclo[2.2.1]hept-2-yl-[4-(5-cyclopropyl-4-piperazin-1-yl-pyrido[3,4-d]pyrimidin-2-yl)-pyridin-2-yl]-amine]: the 50% inhibitory concentration (IC50) is under 100 nM. Under `Clc1cncc2nc(-c3ccnc(Nc4ccccc4)c3)nc(N3CCNCC3)c12` [Example 246, [4-(5-Chloro-4-piperazin-1-yl-pyrido[3,4-d]pyrimidin-2-yl)-pyridin-2-yl]-phenyl-amine] stands 100 to 1000 nM; under `COc1cncc2nc(-c3ccnc(Nc4ccc(C#N)cc4F)c3)nc(N3CCNCC3)c12` [Example 419, 3-Fluoro-4-[4-(5-methoxy-4-piperazin-1-yl-pyrido[3,4-d]pyrimidin-2-yl)-pyridin-2-ylamino]-benzonitrile], 100 to 1000 nM.

As to `Cn1cc(-c2nccc3c(NC[C@@H](N)Cc4ccccc4)nc(-c4ccncc4)nc23)cn1` [Example 98, N-[(2S)-2-amino-3-phenylpropyl]-8-(1-methyl-1H-pyrazol-4-yl)-2-(pyridin-4-yl)-pyrido[3,4-d]-pyrimidin-4-amine], the 50% inhibitory concentration (IC50) lay within 1000 to 10000 nM. Regarding `Cc1[nH]c2nccc(-c3nc(N4CCNCC4)c4c(C5CC5)cncc4n3)c2c1Cl` [Example 2209, 2-(3-Chloro-2-methyl-1H-pyrrolo[2,3-b]pyridin-4-yl)-5-cyclopropyl-4-piperazin-1-yl-pyrido[3,4-d]pyrimidine], the 50% inhibitory concentration (IC50) is under 100 nM.

For the molecule `Fc1cc(F)c(F)c(Nc2cc(-c3nc(NC4CCNC4)c4c(C5CC5)cncc4n3)ccn2)n1` (centres unmarked) [Example 2021, {5-Cyclopropyl-2-[2-(3,4,6-trifluoro-pyridin-2-ylamino)-pyridin-4-yl]-pyrido[3,4-d]pyrimidin-4-yl}-pyrrolidin-3-yl-amine], the half-inhibitory concentration (IC50) is under 100 nM.

Turning to `c1ccc2c(c1)[nH]c1nccc(-c3nc(N4CCNCC4)c4c(C5CCC5)cncc4n3)c12` [Example 2090, 4-(5-Cyclobutyl-4-piperazin-1-yl-pyrido[3,4-d]pyrimidin-2-yl)-9H-pyrido[2,3-b]indole], the IC50 fell in the range of 100 to 1000 nM. Consider `COc1ccc(-c2nccc3c(NC[C@@H](N)Cc4ccccc4)nc(-c4ccncc4)nc23)cc1` [Example 95, N-[(2S)-2-amino-3-phenylpropyl]-8-(4-methoxy-phenyl)-2-(pyridin-4-yl)-pyrido[3,4-d]-pyrimidin-4-amine], for which the IC50 is 100 to 1000 nM. The figure for `COc1cncc2nc(-c3ccnc(Nc4cccc(C(F)(F)F)n4)c3)nc(N3CCNCC3)c12` [Example 449, [4-(5-Methoxy-4-piperazin-1-yl-pyrido[3,4-d]pyrimidin-2-yl)-pyridin-2-yl]-(6-trifluoromethyl-pyridin-2-yl)-amine] is under 100 nM. The figure for `COc1cncc2nc(-c3ccnc(Nc4ccccc4)c3)nc(N[C@@H]3CCNC3)c12` [Example 238, [5-Methoxy-2-(2-phenylamino-pyridin-4-yl)-pyrido[3,4-d]pyrimidin-4-yl]-(R)-pyrrolidin-3-yl-amine] is under 100 nM; for `COc1cccc(-c2nccc3c(NC[C@@H](N)Cc4ccccc4)nc(-c4ccncc4)nc23)c1` [Example 94, N-[(2S)-2-amino-3-phenylpropyl]-8-(3-methoxy-phenyl)-2-(pyridin-4-yl)-pyrido[3,4-d]-pyrimidin-4-amine] it is 100 to 1000 nM.

As a reminder, the IC50 is the concentration that inhibits the measured activity by half.

For the origin of these results see patent publication US9914730B2, “Azaquinazoline inhibitors of Atypical protein Kinase C” (Ignyta, Inc., priority 2012, dated 2018).
